Reference: patent publication US5178789A, “Liquid detergent with stabilized enzyme” (Genencor International, Inc., priority 1991, dated 1993)
Several values for one entry are separate records, joined by “and”; a condition that tells them apart may be missing. Equal entries are not always repeated.

Assays:
Format in all cases: biochemical
[1] = system: subtilisin; test: Inhibition assay: subtilisin incubated with inhibitor, rate of substrate hydrolysis monitored; details: about 2 mg/ml TOM; summary of Tables I and II
Experimental: The inhibitor solution is made up in a 20 mM Mops, pH 7 buffer and added to an eppendorf. 0.8 mM subtilisin is added and the mixture is allowed to incubate at room temperature for 15 minutes. After 15 minutes, 99 μl of the mixture is added to a cuvette containing 10 μl of 100 mg/ml SAAApna. The rate of hydrolysis is monitored at […]. A subtilisin control containing no inhibitor is carried out.

[2] = system: subtilisin; test: Dilution assay: inhibition mixture diluted, final 1:1000, recovered subtilisin activity; details: final dilution 1:1000, 0.1M Tris pH 8.6
Experimental: The above inhibition assay is diluted 1:10 into the standard subtilisin assay buffer (0.1M Tris, pH 8.6 with 0.005% Tween). 10 μl of this diluted material is then added to a cuvette containing 10 μl of 100 mg/ml SAAPFpna and 980 μl subtilisin Assay Buffer. The rate of reaction is followed at 410 nm. The final dilution is 1:1000.

[3] = system: subtilisin; test: Inhibition of subtilisin by TOM in the presence of Tide Liquid, diluted 1/500; details: for % Activity Recovered Upon Dilution / Subtilisin activity, Tide 2 mg/ml TOM: 2 mg/ml TOM in Tide Liquid, diluted 1/500
Experimental: 2 mg/ml of TOM was added to Tide™ Liquid (commercially available from The Procter & Gamble Co). The solution was diluted 1/500 into the standard subtilisin 8.6 Tris buffer. 10 μl aliquots were taken at various times to monitor subtilisin activity. Similar dilutions and assay procedures were carried out with Tide™ Liquid. 100 mg/ml SAAPFpna substrate was used.

turkey ovomucoid [TOM]
active enzyme bound by inhibitor [1]: at least 90%
Dilution Assay % Recovered Activity ([2]; 0.4 mg/ml TOM): 32%
Dilution Assay % Recovered Activity ([2]; 2 mg/ml TOM): 45%
enzyme activity recovered immediately upon appropriate dilution ([3]; about 2 mg/ml TOM, summary of Tables I and II): > 25% and 46%
% Activity Recovered Upon Dilution ([3]; time 0 min): 46%
Subtilisin activity, Tide 2 mg/ml TOM ([3]; time 0 min): 1.04
% Activity Recovered Upon Dilution ([3]; time 15 min): 38%
Subtilisin activity, Tide 2 mg/ml TOM ([3]; time 15 min): 0.97
% Activity Recovered Upon Dilution ([3]; time 30 min): 33%
Subtilisin activity, Tide 2 mg/ml TOM ([3]; time 30 min): 0.965
